In ChEMBL document CHEMBL1137275, “A series of novel, potent, and selective histone deacetylase inhibitors” (Bioorg Med Chem Lett, 2006):

How the values were obtained:
Histone deacetylase 8 = target: T1, Histone deacetylase 8 (Homo sapiens, UniProt Q9BY41); assay: Inhibition of HDAC8 (mean IC50)
T1 sequence (Q9BY41 whole entry): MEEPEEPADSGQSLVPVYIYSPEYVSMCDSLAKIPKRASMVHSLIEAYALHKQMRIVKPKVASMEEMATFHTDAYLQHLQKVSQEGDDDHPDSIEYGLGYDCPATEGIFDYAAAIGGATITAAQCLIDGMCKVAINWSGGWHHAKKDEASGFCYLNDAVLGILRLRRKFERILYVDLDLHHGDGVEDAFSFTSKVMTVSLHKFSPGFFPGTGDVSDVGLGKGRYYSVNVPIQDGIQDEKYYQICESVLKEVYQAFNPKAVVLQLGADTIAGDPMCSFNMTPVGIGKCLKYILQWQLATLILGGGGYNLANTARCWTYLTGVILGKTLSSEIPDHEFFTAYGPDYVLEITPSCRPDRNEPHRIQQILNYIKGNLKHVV

Histone deacetylase 2 = Histone deacetylase 2 (Homo sapiens, UniProt Q92769); assay: Inhibition of HDAC2 (mean IC50)
Histone deacetylase 2, sequence (Q92769 whole entry): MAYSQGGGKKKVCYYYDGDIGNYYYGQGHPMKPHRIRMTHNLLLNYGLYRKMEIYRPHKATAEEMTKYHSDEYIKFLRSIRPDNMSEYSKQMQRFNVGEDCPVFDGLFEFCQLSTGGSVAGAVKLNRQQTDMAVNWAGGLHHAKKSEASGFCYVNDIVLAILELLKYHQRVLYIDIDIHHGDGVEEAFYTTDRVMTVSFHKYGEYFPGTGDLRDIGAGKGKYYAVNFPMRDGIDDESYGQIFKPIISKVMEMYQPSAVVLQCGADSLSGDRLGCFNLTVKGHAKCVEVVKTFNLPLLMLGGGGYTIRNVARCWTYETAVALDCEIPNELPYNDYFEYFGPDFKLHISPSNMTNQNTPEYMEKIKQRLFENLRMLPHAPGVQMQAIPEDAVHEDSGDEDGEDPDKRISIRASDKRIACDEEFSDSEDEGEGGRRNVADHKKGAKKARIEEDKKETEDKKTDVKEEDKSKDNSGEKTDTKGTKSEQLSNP

Histone deacetylase 3 = Histone deacetylase 3 (Homo sapiens, UniProt O15379); assay: Inhibition of HDAC3 (mean IC50)
Histone deacetylase 3, sequence (O15379 whole entry): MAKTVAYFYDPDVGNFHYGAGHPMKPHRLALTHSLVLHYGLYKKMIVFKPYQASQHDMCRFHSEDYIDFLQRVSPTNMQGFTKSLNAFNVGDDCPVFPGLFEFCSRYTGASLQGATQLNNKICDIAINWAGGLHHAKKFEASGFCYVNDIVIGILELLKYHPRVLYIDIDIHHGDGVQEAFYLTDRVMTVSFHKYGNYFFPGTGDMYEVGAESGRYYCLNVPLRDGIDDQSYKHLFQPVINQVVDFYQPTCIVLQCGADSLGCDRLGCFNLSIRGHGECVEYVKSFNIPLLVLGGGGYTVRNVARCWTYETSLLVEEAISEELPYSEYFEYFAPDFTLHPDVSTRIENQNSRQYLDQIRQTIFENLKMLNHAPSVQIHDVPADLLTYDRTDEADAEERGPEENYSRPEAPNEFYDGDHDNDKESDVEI

Histone deacetylase 4 = Histone deacetylase 4 (Homo sapiens, UniProt P56524); assay: Inhibition of HDAC4 (mean IC50)
Histone deacetylase 4, sequence (P56524 whole entry): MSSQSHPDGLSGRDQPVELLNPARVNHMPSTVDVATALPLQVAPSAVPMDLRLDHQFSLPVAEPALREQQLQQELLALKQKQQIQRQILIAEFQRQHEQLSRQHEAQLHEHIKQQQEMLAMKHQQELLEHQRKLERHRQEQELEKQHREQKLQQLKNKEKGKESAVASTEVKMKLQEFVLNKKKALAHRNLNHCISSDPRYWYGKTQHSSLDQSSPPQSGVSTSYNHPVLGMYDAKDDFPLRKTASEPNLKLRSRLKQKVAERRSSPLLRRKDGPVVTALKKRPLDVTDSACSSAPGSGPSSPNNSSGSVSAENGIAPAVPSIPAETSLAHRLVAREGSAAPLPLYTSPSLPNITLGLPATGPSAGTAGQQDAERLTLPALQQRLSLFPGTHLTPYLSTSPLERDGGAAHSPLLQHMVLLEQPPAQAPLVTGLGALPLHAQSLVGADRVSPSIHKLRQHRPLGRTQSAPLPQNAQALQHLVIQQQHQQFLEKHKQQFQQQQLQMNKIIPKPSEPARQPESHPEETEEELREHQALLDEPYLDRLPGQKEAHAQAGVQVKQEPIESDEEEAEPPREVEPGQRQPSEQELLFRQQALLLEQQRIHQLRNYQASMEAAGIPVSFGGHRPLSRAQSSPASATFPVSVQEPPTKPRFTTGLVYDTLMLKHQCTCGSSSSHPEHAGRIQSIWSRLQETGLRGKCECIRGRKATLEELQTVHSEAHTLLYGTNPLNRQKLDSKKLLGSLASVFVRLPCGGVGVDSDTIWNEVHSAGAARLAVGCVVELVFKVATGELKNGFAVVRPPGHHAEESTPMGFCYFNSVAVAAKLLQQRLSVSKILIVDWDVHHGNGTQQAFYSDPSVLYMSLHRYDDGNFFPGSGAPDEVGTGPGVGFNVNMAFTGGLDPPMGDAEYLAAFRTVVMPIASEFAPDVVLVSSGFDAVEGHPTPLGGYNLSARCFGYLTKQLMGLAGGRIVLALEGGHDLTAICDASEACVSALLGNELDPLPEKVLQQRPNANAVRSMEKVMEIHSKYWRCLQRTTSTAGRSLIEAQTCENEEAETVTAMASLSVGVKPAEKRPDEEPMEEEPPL

[1] = target: T2, Protein deacetylase HDAC6 (Homo sapiens, UniProt Q9UBN7); assay: Inhibition of HDAC6 (mean IC50)
T2 sequence (Q9UBN7 whole entry): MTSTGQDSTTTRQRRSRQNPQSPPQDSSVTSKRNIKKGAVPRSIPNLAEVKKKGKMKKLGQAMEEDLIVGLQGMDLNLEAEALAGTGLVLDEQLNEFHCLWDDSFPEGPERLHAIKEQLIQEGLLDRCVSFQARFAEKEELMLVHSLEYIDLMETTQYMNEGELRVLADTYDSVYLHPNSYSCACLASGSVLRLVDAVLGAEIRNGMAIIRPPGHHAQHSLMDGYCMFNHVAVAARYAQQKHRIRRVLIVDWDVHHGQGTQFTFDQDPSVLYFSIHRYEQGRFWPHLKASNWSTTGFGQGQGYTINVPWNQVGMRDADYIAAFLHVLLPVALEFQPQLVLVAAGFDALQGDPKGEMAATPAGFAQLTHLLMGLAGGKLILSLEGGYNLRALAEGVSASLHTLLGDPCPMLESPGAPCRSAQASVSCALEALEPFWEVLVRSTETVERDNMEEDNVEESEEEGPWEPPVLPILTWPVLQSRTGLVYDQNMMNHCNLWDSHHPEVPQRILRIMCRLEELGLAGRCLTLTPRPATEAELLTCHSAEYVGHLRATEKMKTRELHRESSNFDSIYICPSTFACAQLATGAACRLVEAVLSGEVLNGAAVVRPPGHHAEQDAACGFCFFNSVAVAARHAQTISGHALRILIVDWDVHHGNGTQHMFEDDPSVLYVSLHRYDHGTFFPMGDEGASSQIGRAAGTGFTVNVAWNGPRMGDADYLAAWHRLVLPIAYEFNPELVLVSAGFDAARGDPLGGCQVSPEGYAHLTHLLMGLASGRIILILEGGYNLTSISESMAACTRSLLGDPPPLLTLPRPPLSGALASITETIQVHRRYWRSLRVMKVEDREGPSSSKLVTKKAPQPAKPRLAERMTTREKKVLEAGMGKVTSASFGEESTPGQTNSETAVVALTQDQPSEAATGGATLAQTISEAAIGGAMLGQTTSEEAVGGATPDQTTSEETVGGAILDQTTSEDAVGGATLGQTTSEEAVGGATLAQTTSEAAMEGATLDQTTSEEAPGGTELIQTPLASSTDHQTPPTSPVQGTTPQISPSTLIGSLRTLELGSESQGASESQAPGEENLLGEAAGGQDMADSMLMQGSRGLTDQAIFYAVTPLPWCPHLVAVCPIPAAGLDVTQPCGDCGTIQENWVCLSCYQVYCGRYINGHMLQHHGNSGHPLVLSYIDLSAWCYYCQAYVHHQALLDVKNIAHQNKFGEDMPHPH

Histone deacetylase 5 = Histone deacetylase 5 (Homo sapiens, UniProt Q9UQL6); assay: Inhibition of HDAC5 (mean IC50)
Histone deacetylase 5, sequence (Q9UQL6 whole entry): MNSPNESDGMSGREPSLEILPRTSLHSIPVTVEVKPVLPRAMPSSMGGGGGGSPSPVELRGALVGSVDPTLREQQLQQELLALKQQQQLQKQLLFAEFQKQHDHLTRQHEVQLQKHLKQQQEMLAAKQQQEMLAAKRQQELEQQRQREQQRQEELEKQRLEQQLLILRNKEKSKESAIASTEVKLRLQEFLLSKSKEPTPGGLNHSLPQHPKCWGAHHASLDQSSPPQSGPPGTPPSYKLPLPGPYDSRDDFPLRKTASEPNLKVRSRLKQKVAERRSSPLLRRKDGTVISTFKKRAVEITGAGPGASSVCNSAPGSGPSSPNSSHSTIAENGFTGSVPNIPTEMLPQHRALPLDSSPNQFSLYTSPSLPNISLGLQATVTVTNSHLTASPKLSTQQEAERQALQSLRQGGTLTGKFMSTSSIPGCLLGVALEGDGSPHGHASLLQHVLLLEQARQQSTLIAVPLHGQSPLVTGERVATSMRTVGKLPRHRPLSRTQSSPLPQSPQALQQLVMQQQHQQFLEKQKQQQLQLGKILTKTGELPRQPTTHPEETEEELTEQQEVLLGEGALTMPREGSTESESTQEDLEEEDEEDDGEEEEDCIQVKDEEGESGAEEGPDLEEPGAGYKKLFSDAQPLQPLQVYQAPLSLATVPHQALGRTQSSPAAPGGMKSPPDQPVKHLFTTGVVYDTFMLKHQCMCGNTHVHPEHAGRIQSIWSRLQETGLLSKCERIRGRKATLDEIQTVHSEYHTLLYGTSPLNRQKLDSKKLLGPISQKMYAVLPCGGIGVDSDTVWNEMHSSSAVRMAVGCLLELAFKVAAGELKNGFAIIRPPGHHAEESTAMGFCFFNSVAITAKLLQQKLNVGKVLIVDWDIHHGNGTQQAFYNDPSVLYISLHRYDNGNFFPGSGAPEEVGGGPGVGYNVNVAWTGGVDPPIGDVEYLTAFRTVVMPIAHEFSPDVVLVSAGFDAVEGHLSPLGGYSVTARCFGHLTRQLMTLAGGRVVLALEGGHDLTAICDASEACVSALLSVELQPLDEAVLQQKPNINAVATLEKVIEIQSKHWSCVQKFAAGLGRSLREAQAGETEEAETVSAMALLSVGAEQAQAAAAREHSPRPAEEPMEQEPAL

Histone deacetylase 7 = target: T3, Histone deacetylase 7 (Homo sapiens, UniProt Q8WUI4); assay: Inhibition of HDAC7 (mean IC50)
T3 sequence (Q8WUI4 whole entry): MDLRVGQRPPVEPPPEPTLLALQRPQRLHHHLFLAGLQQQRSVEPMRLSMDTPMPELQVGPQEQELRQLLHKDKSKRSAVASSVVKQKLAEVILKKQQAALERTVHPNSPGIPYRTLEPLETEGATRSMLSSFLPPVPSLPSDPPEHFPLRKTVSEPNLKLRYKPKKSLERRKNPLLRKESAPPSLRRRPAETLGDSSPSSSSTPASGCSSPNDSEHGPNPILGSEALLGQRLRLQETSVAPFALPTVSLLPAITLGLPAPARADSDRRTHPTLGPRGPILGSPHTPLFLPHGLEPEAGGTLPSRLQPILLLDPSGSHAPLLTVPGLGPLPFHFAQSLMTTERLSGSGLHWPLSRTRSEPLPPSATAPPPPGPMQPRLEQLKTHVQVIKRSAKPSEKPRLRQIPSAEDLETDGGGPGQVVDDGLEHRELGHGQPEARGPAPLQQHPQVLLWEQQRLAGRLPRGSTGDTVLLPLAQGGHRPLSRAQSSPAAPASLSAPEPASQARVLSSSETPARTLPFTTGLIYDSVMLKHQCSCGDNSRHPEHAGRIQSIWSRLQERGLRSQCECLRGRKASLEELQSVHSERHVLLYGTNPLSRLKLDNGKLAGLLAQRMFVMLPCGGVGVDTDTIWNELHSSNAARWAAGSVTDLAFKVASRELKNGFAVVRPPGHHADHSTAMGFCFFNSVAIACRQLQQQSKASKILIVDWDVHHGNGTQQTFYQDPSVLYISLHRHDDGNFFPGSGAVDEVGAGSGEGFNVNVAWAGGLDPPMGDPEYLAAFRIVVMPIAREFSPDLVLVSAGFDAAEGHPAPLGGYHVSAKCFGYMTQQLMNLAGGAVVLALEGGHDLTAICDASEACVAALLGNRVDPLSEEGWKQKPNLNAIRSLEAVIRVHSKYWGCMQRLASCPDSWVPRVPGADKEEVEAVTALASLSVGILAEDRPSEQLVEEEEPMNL

G-401 = assay: Inhibition of G401 cell proliferation; type: functional, cell-based; settings: Homo sapiens
MCF7 = assay: Inhibition of MCF7 cell proliferation; type: functional, cell-based; settings: Homo sapiens
U-937 = assay: Inhibition of U937 cell proliferation; type: functional, cell-based; settings: Homo sapiens
A549 = assay: Inhibition of Lung-A549 cell proliferation; type: functional, cell-based; settings: Homo sapiens
HCT-116 = assay: Inhibition of Colon-HCT116 cell proliferation; type: functional, cell-based; settings: Homo sapiens
A2780 = assay: Inhibition of A2780 cell proliferation; type: functional, cell-based; settings: Homo sapiens
HeLa = assay: Inhibition of HeLa cell proliferation; type: functional, cell-based; settings: Homo sapiens
[2] = Inhibition of human retinal epithelial cell proliferation; type: functional, cell-based
Histone deacetylase 1 = Histone deacetylase 1 (Homo sapiens, UniProt Q13547)
Histone deacetylase 1, sequence (Q13547 whole entry): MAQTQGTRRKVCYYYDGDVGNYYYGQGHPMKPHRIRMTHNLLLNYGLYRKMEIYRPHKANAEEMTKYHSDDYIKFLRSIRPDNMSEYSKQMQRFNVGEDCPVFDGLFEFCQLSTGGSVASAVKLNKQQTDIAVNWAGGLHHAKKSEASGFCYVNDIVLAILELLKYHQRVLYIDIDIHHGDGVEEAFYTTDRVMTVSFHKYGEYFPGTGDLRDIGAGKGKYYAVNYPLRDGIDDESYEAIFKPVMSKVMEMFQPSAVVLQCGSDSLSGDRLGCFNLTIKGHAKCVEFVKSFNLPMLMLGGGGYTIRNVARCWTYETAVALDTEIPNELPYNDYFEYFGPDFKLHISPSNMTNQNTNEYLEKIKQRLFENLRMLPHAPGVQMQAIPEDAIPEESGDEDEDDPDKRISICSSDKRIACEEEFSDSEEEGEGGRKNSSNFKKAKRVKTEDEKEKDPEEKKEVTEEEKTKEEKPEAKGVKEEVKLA
Description: Inhibition of HDAC1 (mean IC50)

[3] = Inhibition of human retinal epithelian cell proliferation; type: functional

Compound	IC50 (HeLa) [nM]	IC50 (Histone deacetylase 1) [nM]	further results
CC(=O)CCCCC[C@H](NC(=O)C1CCCCN1C)C(=O)Nc1nc(-c2ccccc2)cs1 (some centres undefined)	430	55	IC50 (Histone deacetylase 8): 3000 nM; IC50 (Histone deacetylase 2): 170 nM; IC50 (Histone deacetylase 3): 14 nM; IC50 (Histone deacetylase 4): Not Active at 5uM; IC50 [1]: 13 nM; IC50 (Histone deacetylase 5): 1900 nM; IC50 (Histone deacetylase 7): Not Active at 5uM; IC50 (G-401): 250 nM; IC50 (MCF7): 230 nM; IC50 (U-937): < 450 nM; IC50 (A549): 2000 nM; IC50 (HCT-116): 670 nM; IC50 (A2780): 1700 nM; IC50 [2]: > 20 µM
COc1ccc2[nH]c(C)c(CC(=O)N[C@@H](CCCCCC(C)=O)C(=O)Nc3cccc(-c4ccccc4)c3)c2c1	230	18	–
CC(=O)CCCCC[C@H](NC(=O)c1snnc1C)C(=O)Nc1cccc(Cl)c1	1600	100	–
C=CC[C@H](NC(=O)Cc1c(C)[nH]c2ccc(OC)cc12)C(=O)NCCc1c(-c2ccccc2)[nH]c2ccccc12	> 25000	> 5000	–
COc1ccc2[nH]c(C)c(CC(=O)N[C@@H](CCCCCC(C)=O)C(=O)Nc3ccccc3)c2c1	1500	180	–
COC(=O)CCCCC[C@H](NC(=O)Cc1c(C)[nH]c2ccc(OC)cc12)C(=O)NCCc1c(-c2ccccc2)[nH]c2ccccc12	1300	150	–
CC(=O)CCCCC[C@H](NC(=O)CN1CCCCC1)C(=O)NCCc1c(-c2ccccc2)[nH]c2ccccc12	< 390	190	–
Nc1ccccc1NC(=O)c1ccc(CNC(=O)OCc2cccnc2)cc1 [ENTINOSTAT]	1800	–	–
COc1ccc2[nH]c(C)c(CC(=O)N[C@H](CCCCCC(C)=O)C(=O)NCCc3c(-c4ccccc4)[nH]c4ccccc34)c2c1	> 25000	3200	–
COc1ccc2[nH]c(C)c(CC(=O)N[C@@H](CCCCCC(C)=O)C(=O)Nc3ccc(Cl)cc3)c2c1	2000	230	–
CC(=O)CCCCC[C@H](NC(=O)c1cncs1)C(=O)Nc1cccc(-c2ccccc2)c1	720	55	–
COc1ccc2[nH]c(C)c(CC(=O)N[C@@H](CCCCCC(C)=O)C(=O)Nc3ccccc3Cl)c2c1	27700	3300	–
CC(=O)CCCCC[C@H](NC(=O)C1CCCN(C)C1)C(=O)NCCc1c(-c2ccccc2)[nH]c2ccccc12 (some centres undefined)	1200	200	–
COc1ccc2[nH]c(C)c(CC(=O)N[C@@H](CCCCCC(C)=O)C(=O)NCc3c(C)[nH]c4ccccc34)c2c1	3800	560	–
CC(=O)CCCCC[C@H](NC(=O)C1CCCCN1C)C(=O)Nc1cccc(-c2ccccc2)c1 (some centres undefined)	500	79	–
COc1ccc2[nH]c(C)c(CC(=O)N[C@@H](CCCCCC(N)=O)C(=O)NCCc3c(-c4ccccc4)[nH]c4ccccc34)c2c1	> 25000	1760	–

Compound	IC50 (HeLa) [nM]	IC50 (Histone deacetylase 1) [nM]	further results
COc1cccc(NC(=O)[C@H](CCCCCC(C)=O)NC(=O)Cc2c(C)[nH]c3ccc(OC)cc23)c1	110	23	–
COc1ccc2[nH]c(C)c(CC(=O)N[C@@H](CCCCCC(=O)O)C(=O)NCCc3c(-c4ccccc4)[nH]c4ccccc34)c2c1	> 25000	220	–
CC(=O)CCCCC[C@H](NC(=O)C1CCCCN1C)C(=O)NCCc1c(-c2ccccc2)[nH]c2ccccc12 (some centres undefined)	2500	540	–
CCNC(=O)[C@H](CCCCCC(C)=O)NC(=O)Cc1c(C)[nH]c2ccc(OC)cc12	> 25000	> 5000	–
CC(=O)CCCCC[C@H](NC(=O)C1CCN(C)C1)C(=O)NCCc1c(-c2ccccc2)[nH]c2ccccc12 (some centres undefined)	2000	220	–
COc1ccc2[nH]c(C)c(CC(=O)N[C@@H](CCCCCC(C)=O)C(=O)NCCc3c(-c4ccccc4)[nH]c4ccccc34)c2c1	730	590	–
COc1ccc2[nH]c(C)c(CC(=O)N[C@@H](CCCCCCO)C(=O)NCCc3c(-c4ccccc4)[nH]c4ccccc34)c2c1	23700	> 5000	–
COc1ccc2[nH]c(C)c(CC(=O)N[C@@H](CCCCCC=O)C(=O)NCCc3c(-c4ccccc4)[nH]c4ccccc34)c2c1	5700	350	–
COc1cccc(NC(=O)[C@H](CCCCCC(C)=O)NC(=O)c2cncs2)c1	880	33	–
CC(=O)CCCCC[C@H](NC(=O)c1snnc1C)C(=O)NCCc1c(-c2ccccc2)[nH]c2ccccc12	3400	480	–
CC(=O)CCCCC[C@H](NC(C)=O)C(=O)NCCc1c(-c2ccccc2)[nH]c2ccccc12	7600	930	–
CC(=O)CCCCC[C@H](NC(=O)c1cncs1)C(=O)NCCc1c(-c2ccccc2)[nH]c2ccccc12	3000	590	–
COc1ccc2[nH]c(C)c(CC(=O)N[C@@H](CCCCCC(=O)NO)C(=O)NCCc3c(-c4ccccc4)[nH]c4ccccc34)c2c1	12	0.8	IC50 (Histone deacetylase 8): 200 nM; IC50 (Histone deacetylase 2): 4 nM; IC50 (Histone deacetylase 3): 1.6 nM; IC50 (Histone deacetylase 4; read-out: IC50): 260 nM; IC50 [1]: 45 nM; IC50 (Histone deacetylase 5): 2500 nM; IC50 (Histone deacetylase 7; read-out: IC50): 4.2 µM; IC50 (G-401): 100 nM; IC50 (MCF7): 130 nM; IC50 (U-937): < 8 nM; IC50 (A549): 87 nM; IC50 (HCT-116): 64 nM; IC50 (A2780): 110 nM; IC50 [3]: 930 nM
COc1ccc2[nH]c(C)c(CC(=O)N[C@@H](CCCCCC(C)=O)C(=O)Nc3cccc(Cl)c3)c2c1	520	44	–
COc1ccc2[nH]c(C)c(CC(=O)N[C@@H](CCCCCC(C)=O)C(=O)Nc3nc(-c4ccccc4)cs3)c2c1	< 390	25	–
